Laboratory results published in PubChem BioAssay AID449762 (Southern Research Specialized Biocontainment Screening …, 2010).
Inconclusive results are not listed.

System: M. tuberculosis H37Rv growth inhibition, 7H9 media
Assay: M. tuberculosis growth inhibition, HTS (AID 449762);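 also: bacterial growth assessed after seven days of incubation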
Details: for IC90: measured here: IC90 growth inhibition

Structure (SMILES) | IC50 | IC90
Clc1ccc(-c2[nH]ncc2N=Nc2ccccc2)cc1 | 31.7 µM | > 100 µM
Cc1cc(C(=O)CCl)c(C)n1CCc1ccc(Cl)cc1 | 0.34 µM | 2.18 µM
N[C@@H](CCl)C(=O)O | 39.4 µM | 58.9 µM
CCOc1ccc(NC(=S)Nc2ccc(C)c([N+](=O)[O-])c2)cc1 | 45 µM | > 100 µM
Cc1cc(C)nc(Sc2ncnc(N)c2[N+](=O)[O-])n1 | 7.98 µM | 20.7 µM
CCCCCC(=O)Nc1cccc2ccccc12 | 14.1 µM | > 100 µM
c1ccc(C[C@H]2CN=C(Nc3ccccc3)N2CCCC2CCCC2)cc1 | 31.4 µM | 48.5 µM
Cc1ccc(C)c(-c2nnc(NC(=O)C3=COCCO3)o2)c1 | 5.33 µM | 12.2 µM
COC(=O)c1cc(Sc2cccc(Cl)c2Cl)ccn1 | 20.6 µM | 30.7 µM
CS(=O)(=O)c1nc(-c2ccccc2)cc(C(F)(F)F)n1 | 6.68 µM | 18.7 µM
O=C(N/N=C(\c1ccccc1)c1ccccn1)c1ccccc1Cl | 3.65 µM | 22.1 µM
COc1cc(C(=O)N/N=C/c2cc([N+](=O)[O-])cs2)cc(OC)c1OC | < 0.2 µM | 25.9 µM
Cc1ccc(/C=N/NC(=S)NC(C)C)o1 | 42.4 µM | 47.9 µM
c1ccc(Cn2c(CNc3nc4ccccc4n3CCN3CCCCC3)nc3ccccc32)cc1 | 33.8 µM | 43.9 µM
C/C(=N\NC(=S)Nc1cccc(C)c1)c1cccc(N)c1 | 25.8 µM | 30.4 µM
C/C(=N/Nc1ccnc2cc(Cl)ccc12)c1ccc(O)cc1 | 23.7 µM | 27.2 µM
S=C1SCN(Cc2ccco2)CN1Cc1ccco1 | 32.7 µM | 52.3 µM
COc1ccc(C2CC(c3cccs3)=Nc3ccccc3S2)cc1 (configuration not stated) | 30.1 µM | 44 µM
Cc1ccc(NN=C2c3ccccc3-c3ccccc32)cc1 | 45.5 µM | > 100 µM
Cc1cc(C=C2C(=O)NC(=S)NC2=O)c(C)n1C1CCCC1 | 10.9 µM | 47.2 µM
Cc1ccc(C)c(-c2nn(-c3cc(N4CCN(CCO)CC4)ccc3[N+](=O)[O-])c(=O)c3ccccc23)c1 | 12.7 µM | 28.7 µM
S=C(NN=C1CCN(Cc2ccccc2)CC1)NC1CCCCC1 | 16.7 µM | 25.3 µM

Structure (SMILES) | IC50 | IC90
CCOC(=O)c1ccc(Nc2cc3ccccc3c(=O)[nH]2)cc1 | 72.3 µM | > 100 µM
Cc1ccc(NCc2ccc(O)c3ncccc23)cc1C | 56 µM | > 100 µM
C/C(Cl)=C\COc1cc(C)nc2c(Br)cccc12 | 19.7 µM | 25.1 µM
O=C(CCc1ccc(Oc2cc([N+](=O)[O-])cc([N+](=O)[O-])c2)cc1)N1CCCCCC1 | 4.2 µM | 27 µM
O=C(Nc1nnc(-c2ccccc2)o1)c1cc(-c2cccs2)nc2ccccc12 | 0.89 µM | 2.25 µM
CN(CCCCCCCCCCN(C)C(=O)Oc1cccc([N+](C)(C)C)c1)C(=O)Oc1cccc([N+](C)(C)C)c1 | 1.49 µM | 4.04 µM
O=C(/C=C/c1ccc(O)cc1)c1ccc(NC2=C(N3CCCCC3)C(=O)c3ccccc3C2=O)cc1 | 12 µM | 13.6 µM
O=C(C[n+]1cc(-c2ccc(Cl)cc2)n2c1CCC2)Nc1nc(-c2ccccc2)cs1 | 17 µM | 25.1 µM
Cc1ccc(S(=O)(=O)N2CCC(C(=O)OCc3ccccc3)CC2)cc1C | 22.1 µM | 40.6 µM
COc1ccc(-c2nnc3sc(C4CCCCC4)nn23)cc1OC | 36.2 µM | 55.3 µM
CC(C)NC(=S)N/N=C/c1cc(Br)ccc1O | 6.79 µM | 18.3 µM
CCOc1ccc(-c2cc(C)[n+](CCc3ccc(OC)c(OC)c3)c(-c3ccc(OCC)cc3)c2)cc1 | 0.92 µM | 1.8 µM
c1ccc(/N=C2\N=C(Nc3ccccn3)c3ccccc32)nc1 | 1.08 µM | 1.91 µM
COc1ccc(C=C2C=C(C(C)(C)C)C(=O)C(C(C)(C)C)=C2)cc1OC | 2.94 µM | 5.15 µM
CCc1nnc(N/N=C/c2cc(C)c(C)cc2C)n1N | 7.24 µM | 16 µM
O=C(Oc1ccc(-c2cn3c(n2)SCC3)cc1)c1ccccc1 | 38.2 µM | > 100 µM
NC(N)=Nc1nc(-c2ccccc2)c2ccccc2n1 | 68 µM | 87.9 µM
Cc1cc(Cl)ccc1NNC(=O)CCc1ccccc1 | 94.5 µM | > 100 µM
CCn1c(SCC(=O)OC2CCCCC2)nc2ccccc2c1=O | 21.7 µM | 37.7 µM
CC(C)n1cnc2c(NCc3ccccc3)cc(Cc3ccc(F)cc3)cc21 | 26.9 µM | 36.5 µM
Cc1ccc2c(c1)C1C[N+](C)(CC(=O)c3ccc(Cl)cc3Cl)CCC1N2C(=O)c1ccc(F)cc1 (configuration not stated) | 23.9 µM | 27.1 µM
CCOC(=O)c1c(C)[nH]c(N=Nc2ccc(OC)cc2)c1C | 1.71 µM | 5.55 µM

Structure (SMILES) | IC50 | IC90
CN(c1ccccc1)S(=O)(=O)c1cccc(C(=O)NCc2ccccc2CN2CCCC2)c1 | 48.8 µM | 55.4 µM
Cc1ccc(S(=O)(=O)NNC(=O)c2cc([N+](=O)[O-])c(C)c([N+](=O)[O-])c2)cc1 | 7.57 µM | 12.5 µM
O=[N+]([O-])c1cnc(Nc2ccc(Cl)cn2)c([N+](=O)[O-])c1 | 45.8 µM | > 100 µM
CC(=O)c1cccc(NC(=O)C2C3C=CC(C3=C(c3ccccc3)c3ccccc3)C2C(=O)O)c1 (configuration not stated) | – | > 100 µM
Cc1ccc2nc(N/N=C/c3ccccc3C#N)nc(-c3ccccc3)c2c1 | 81.1 µM | > 100 µM
Clc1ccc(CNc2nc(CN3CCOCC3)nc3scc(-c4ccccc4)c23)cc1 | 17.3 µM | 43.6 µM
CC(C)(C)NC(=O)[C@@H]1C[C@@H]2CCCC[C@@H]2CN1C[C@@H](O)[C@H](Cc1ccccc1)NC(=O)[C@H](CC(N)=O)NC(=O)c1ccc2ccccc2n1 | 40.1 µM | 51.9 µM
Cc1cncn1CCc1nc2c3ccccc3nc(SCC(=O)Nc3cccc(Cl)c3)n2n1 | 20.9 µM | 27.9 µM
C=CCSc1n[nH]c(-c2ccc(OCCCC)cc2)n1 | 15.8 µM | 39.2 µM
C=C(C)CSc1cc(C)c(C#N)c2nc3ccccc3n12 | 34.3 µM | 48.1 µM
CN(C)CCNc1ncnc2c1sc1nc(-c3ccccc3)c3c(c12)CCCC3 | 17.7 µM | 20.7 µM
COc1ccc(-c2nc(CN3CCN(c4cc(C)nc(C)c4)CC3)c(C)o2)c2ccccc12 | 19.6 µM | 25.2 µM
O=C(CCl)c1ccc2c(c1)CCN2C(=O)C1CCCCC1 | 16.7 µM | > 100 µM
COc1ccc(/C=N/OCC(=O)OCC(=O)N(C)c2ccccc2)cc1 | 8.22 µM | 39.1 µM
O=[N+]([O-])c1ccc(N2CCCCC2)s1 | 7.61 µM | 17.9 µM
Cc1cccc(N2CCN(CCCNC(=O)c3ccc(NC(=O)C4=CSCCO4)cc3)CC2C)c1 (configuration not stated) | 19.7 µM | 29.2 µM
CCOc1ccc(/C=N/Nc2ccc(Cl)nn2)c(O)c1 | 4.49 µM | 7.48 µM
CCCCOc1ccc(C(=O)Oc2ccc(C)nc2)cc1 | 13.8 µM | 72.3 µM
CCN1CCN(Cc2ccc(NC(=O)c3cc(NC(=O)c4cncc(-c5cccs5)c4)cc(OC)c3)cc2C(F)(F)F)CC1 | 10.2 µM | 14.6 µM
O=C(C=C=Nc1ccccc1)C(=O)N=C=Cc1ccccc1 | 5.31 µM | 13.1 µM
